Experimental findings from patent US20220313708A1, “COMBINATION PRODUCT CONTAINING LIMONOID COMPOUND AND SGLT-2 INHIBITOR” (ZHEJIANG YANGSHENGTANG INSTITUTE OF NATURAL MEDICATION CO., …, priority 2019, published 2022) are described below.

Type in all cases: in vivo
Test [1] relates to mouse type II diabetes model (db/db mice). The test can be described thus: Blood glucose in db/db mouse type II diabetes model (Example 2, dapagliflozin). The settings on record: single agent 0.04 g/kg per day by gavage, two weeks, 1 h after last administration, mean ± SD. The source says: (§1) In the present example, db/db mice (line name BKS.Cg-Dock7^m+/+Lepr^db/Nju) were used to perform hypoglycemic efficacy evaluation test of animals (blood glucose level and leptin). The limonoid compound was selected from obacunone, isoobacunoic acid and obacunone glycoside, and dapagliflozin single administration group, obacunone single administration group, isoobacunoic acid single administration group, obacunone glycoside single administered group, and respective combination thereof with dapagliflozin administration groups were set. Conditions for experimental feeding: as type II diabetes model mice, 6-week-old SPF-grade db/db mice were purchased from the Nanjing Model Biology Institute, and subjected to experimental feeding after 7 days of preliminary feeding. It should be noted that the conditions for raising the mice were as follows: the temperature was 23±1° C., the humidity was 55±10%, the lights were turned on between 7 am and 7 pm (the lights were turned off at other time), and the mice were allowed to freely take in water and feed. […] The data were expressed as mean and standard deviation. The data before and after were analyzed by t-test, and P<0.05 was considered statistically significant.

Test [2] shares this test system. The test can be described thus: Serum leptin by ELISA in db/db mouse type II diabetes model (Example 2). The settings on record: single agent 0.04 g/kg per day by gavage, two weeks, mean ± SD.
Description: as §1
(In general: In an ELISA, binding on a coated surface is turned into a signal by an enzyme label.)

Test [3] has as its system mouse pancreatic islet β-cell injury model (STZ). Briefly: Blood glucose in STZ mouse pancreatic islet β-cell injury model (Example 3, empagliflozin). The settings on record: STZ ICR mice; single agent 0.1 g/kg per day by gavage, two weeks; 1 h after last administration; mean ± SD. The source says: In this example, a mouse pancreatic islet β-cell injury model was established by modeling ICR mice with streptozotocin (STZ) (Li Nan et al., Protective effect of pine pollen on kidney damage in diabetic nephropathy mice, Science and Technology Review, 2014, 32 (4/5): 95-99), and used to complete the evaluation of hypoglycemic effect in animals (this model could simulate pancreatic islet β-cell damage state of type I and type II diabetics). The limonoid compound was selected from the group consisting of ichangin, ichangensin, and ichangin glycoside, and empagliflozin single administration group, ichangin single administration group, ichangensi single administration group, ichangin glycoside singe administration group, and respective combination thereof with empagliflozin administration groups were set.
(§2) Conditions of experimental feeding: ICR mice (20±2 g), aged 6 weeks, purchased from Zhejiang Academy of Medical Sciences, and subjected to experimental feeding after 7 days of preliminary feeding. It should be noted that the conditions for raising the mice were as follows: the temperature was 23±1° C., the humidity was 55±10%, the lights were turned on between 7 am and 7 pm (the lights were turned off at other time), and the mice were allowed to freely take in water and feed. […]

Test [4] shares this test system. The test can be described thus: Blood glucose in STZ mouse pancreatic islet β-cell injury model (Example 1, canagliflozin). Conditions: STZ ICR mice; single agent 0.02 g/kg per day by gavage, two weeks; 1 h after last administration; mean ± SD.
Description: In this example, a mouse pancreatic islet β-cell injury model was established by modeling ICR mice with streptozotocin (STZ) (Li Nan et al., Protective effect of pine pollen on kidney damage in diabetic nephropathy mice, Science and Technology Review, 2014, 32 (4/5): 95-99), and used to complete the evaluation of hypoglycemic effect in animals (this model could simulate pancreatic islet β-cell damage state of type I and type II diabetics). The limonoid compound was selected from the group consisting of limonin, isolimonic acid, limonin glycoside, and isolimonic acid glycoside, and canagliflozin single administration group, limonin single administration group, isolimonic acid single administration group, limonin glycoside singe administration group, isolimonic acid glycoside singe administration group, and respective combination thereof with canagliflozin administration groups were set.
as §2

Test [5] relates to mouse type II diabetes model (db/db mice). Briefly: Serum insulin by ELISA in db/db mouse type II diabetes model (Example 4). Conditions: single agent 0.2 g/kg per day by gavage, two weeks, mean ± SD. An excerpt: (§3) In the present embodiment, the limonoid compound was selected nomilin, deacetylnomilin, nomilin acid, deacetylnomilin acid glycoside, and ipragliflozin single administration group, nomilin single administration group, deacetylnomilin single administration group, nomilin acid single administered group, deacetylnomilin acid glycoside single administration group, and respective combination thereof with ipragliflozin administration groups were set.
(§4) Conditions for experimental feeding: as type II diabetes model mice, 6-week-old SPF-grade db/db mice were purchased from the Nanjing Model Biology Institute, and subjected to experimental feeding after 7 days of preliminary feeding. It should be noted that the conditions for raising the mice were as follows: the temperature was 23±1° C., the humidity was 55±10%, the lights were turned on between 7 am and 7 pm (the lights were turned off at other time), and the mice were allowed to freely take in water and feed. The experimental feed was mouse growth-stable feed (GB M2118), and the daily feeding and management of the animals were under the responsibility of the animal security department, which provided the animals with sufficient diet and fresh drinking water daily.
(§5) Experimental grouping: male db/db mice (20±2 g) were selected, 18 male mice in each group were tested, and drinking bottles were sterilized weekly. […]

Test [6] has the same test system. The test can be described thus: Blood glucose in db/db mouse type II diabetes model (Example 4, ipragliflozin). Conditions: single agent 0.2 g/kg per day by gavage, two weeks, 1 h after last administration, mean ± SD.
Description: as §3, §4, §5

As to `CCOc1ccc(Cc2cc([C@@H]3O[C@H](CO)[C@@H](O)[C@H](O)[C@H]3O)ccc2Cl)cc1` [Dapagliflozin, dapagliflozin], the Blood glucose value in test [1] is reported as 12.0 ± 2.9 mmol/L. Also, the Leptin in test [2] was determined as 25.34 ± 5.26 pg/mL.
On to `OC[C@H]1O[C@@H](c2ccc(Cl)c(Cc3ccc(O[C@H]4CCOC4)cc3)c2)[C@H](O)[C@@H](O)[C@@H]1O` [Empagliflozin, empagliflozin], for which the Blood glucose value in test [3] was 13.9 ± 2.0 mmol/L.
In the case of `Cc1ccc([C@@H]2O[C@H](CO)[C@@H](O)[C@H](O)[C@H]2O)cc1Cc1ccc(-c2ccc(F)cc2)s1` [Canagliflozin, canagliflozin], the Blood glucose value in test [4] was 19.1 ± 4.1 mmol/L.
Take `OC[C@H]1O[C@@H](c2ccc(F)c(Cc3cc4ccccc4s3)c2)[C@H](O)[C@@H](O)[C@@H]1O` [Ipragliflozin, ipragliflozin]: in test [5], the Insulin came to 7.61 ± 1.03 pg/mL. Moreover, the Blood glucose value in test [6] was 10.3 ± 2.3 mmol/L.
